For assay [1], the target named is T1, α2β GlyR (Homo sapiens, UniProt P23416+P48167).
T1 construct: expressed in transfected cells; host or cells: HEK293
The assay is classed as cell-based. The settings on record: drugs at 10 and 100 µM, Fig. 6A. As for the experimental part: (§1) plated into 60-mm culture dishes and were transfected when approx. 80% confluent. YFP and GlyR chloride channel subunits were transfected in 1∶1 (YFP and α1-3 GlyR homomers) or 2∶1∶1 ratio (YFP, GlyR α1-3 homo and α1-3β GlyR heteromers) with a total cDNA quantity of 1 µg. Cells were transfected using calcium phosphate precipitation transfection technique, as described in Sambrook et al.. […] We have published a detailed comparison of five transient transfection methods employed routinely in the laboratory for this purpose.
(§2) The human α1, α2 and α3 GlyR plasmid DNAs were subcloned into the pcDNA3.1 plasmid vector and the human β subunit plasmid DNA was subcloned into pIRES2-EGFP plasmid vector. The UniprotKB accession numbers for the DNAs are as follows (with gene name in brackets): α1 (GLRA1): P23415, α2 (GLRA2): P23416, α3 (GLRA3): O75311 and β(GLRB): P48167.
(§3) Following termination of transfection, cells were trypsinized by adding 0.7 mL of 0.25% trypsin–EDTA solution (Gibco BRL), resuspended into DMEM, and 2.5×10^3 cells, suspended in 40 µL DMEM, were plated into each well of a transparent 384-well plate for fluorescence imaging experiments. Cells were used in experiments 24 h later. Individual wells typically contained 5×10^3 cells at the time of the experiment. Approximately 1 h prior to commencement of experiments culture media in 384-well plates were removed by turning the plate upside-down onto a stack of tissue and were left for approximately 30 sec until culture media was entirely removed from the wells. The culture media was replaced by 20 µL standard control solution, which contained (in mM) NaCl 140, KCl 5, CaCl2 2, MgCl2 1, HEPES 10, and glucose 10 (pH 7.4) using NaOH. […] For drug screening experiments agonist solutions were supplemented with strychnine (10, 30, 100 µM), picrotoxin (10, 100 µM) and lindane (10, 100 µM) respectively. Drugs were diluted from stocks in agonist solution according to desired final concentrations. […] Experiments were conducted at room temperature (19–22°C).
(§4) The maximum image acquisition rate was 1.25 Hz. Solutions containing agonist and drug were pipetted into a 384-well plate and placed onto LC PAL sample holder platform. Liquid handling was performed with the autosampler described above. Solutions were applied to cells at a rate of 0.6 ml/min.
(§5) Images of fluorescent cells were segmented and quantitatively analyzed using a modified version of DetecTIFF® software. In brief, images were segmented using an iterative size and intensity-based thresholding algorithm and the fluorescence signal of identified cells was calculated as the mean of all pixel values within the area of a cell.
(§6) This VI uses the Levenberg-Marquardt algorithm to determine the set of parameters that best fit the set of input data points (X, Y) as expressed by the nonlinear function: [drawing 1] where a is the set of parameters. The curve model is defined by the following equation: […]

Assay [2] addresses T2, α2 GlyR (Homo sapiens, UniProt P23416).
T2 construct: expressed in transfected cells; host or cells: HEK293
T2 sequence (P23416 28-452): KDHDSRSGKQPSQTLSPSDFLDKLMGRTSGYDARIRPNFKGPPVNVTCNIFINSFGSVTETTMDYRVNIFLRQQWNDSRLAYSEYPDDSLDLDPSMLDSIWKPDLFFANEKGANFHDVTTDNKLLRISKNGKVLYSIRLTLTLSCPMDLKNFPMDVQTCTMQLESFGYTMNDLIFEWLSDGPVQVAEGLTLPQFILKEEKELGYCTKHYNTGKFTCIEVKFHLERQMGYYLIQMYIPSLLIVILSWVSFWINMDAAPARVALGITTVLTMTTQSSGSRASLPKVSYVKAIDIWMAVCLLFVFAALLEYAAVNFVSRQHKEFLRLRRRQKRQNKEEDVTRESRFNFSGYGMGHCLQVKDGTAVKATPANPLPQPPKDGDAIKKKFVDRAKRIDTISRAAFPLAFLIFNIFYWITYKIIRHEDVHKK
Description: Whole-cell patch-clamp electrophysiology, α2 GlyR. The assay is classed as cell-based. The settings on record: read-out: % block of EC50 glycine current; 100 µM lindane, HEK293 cells, -40 mV, 4–7 cells, Fig. 5B. As for the experimental part: (§7) Cells were transfected as described above and plated onto glass coverslips in 3 cm culture dishes. Coverslips containing cells were placed in a recording chamber on the stage of an inverted fluorescent microscope and currents were recorded using the whole-cell patch-clamp configuration. Cells were perfused by extracellular solution containing (in mM): 140 NaCl, 5 KCl, 2 CaCl2, 1 MgCl2, 10 HEPES/NaOH and 10 glucose (pH 7.4 adjusted with NaOH). Patch pipettes were fabricated from borosilicate hematocrit tubing (Hirschmann Laborgeraete, Eberstadt, Germany) and heat polished. […] After establishment of the whole-cell recording configuration, cells were voltage clamped at −40 mV and membrane currents were recorded using an Axopatch 1D and pClamp 10 software (Molecular Devices). Currents were filtered at 500 Hz and digitized at 2 KHz.
(§8) Because αsubunits can form functional receptors with or without β subunits, it was necessary to confirm that the expressed receptors incorporated β subunits. As the GlyR β subunit cDNA was cloned into the pIRES2-EGFP plasmid vector, we used green fluorescent protein fluorescence to identify cells transfected with the GlyR β subunit. The successful incorporation of β subunits into functional heteromeric GlyRs was also confirmed pharmacologically by their characteristic reduction in […] sensitivity as described below.
(In general: Patch clamp records ionic current or voltage across a cell membrane.)

Assay [3] addresses T1, α2β GlyR. Description: Whole-cell patch-clamp electrophysiology, α2β GlyR. The assay is classed as cell-based. The settings on record: read-out: % block of EC50 glycine current; 100 µM lindane, HEK293 cells, -40 mV, 4–7 cells, Fig. 5B. As for the experimental part: as §7, §8
In assay [4] the target is T3, α3 GlyR (Homo sapiens, UniProt O75311).
T3 sequence (O75311 34-464): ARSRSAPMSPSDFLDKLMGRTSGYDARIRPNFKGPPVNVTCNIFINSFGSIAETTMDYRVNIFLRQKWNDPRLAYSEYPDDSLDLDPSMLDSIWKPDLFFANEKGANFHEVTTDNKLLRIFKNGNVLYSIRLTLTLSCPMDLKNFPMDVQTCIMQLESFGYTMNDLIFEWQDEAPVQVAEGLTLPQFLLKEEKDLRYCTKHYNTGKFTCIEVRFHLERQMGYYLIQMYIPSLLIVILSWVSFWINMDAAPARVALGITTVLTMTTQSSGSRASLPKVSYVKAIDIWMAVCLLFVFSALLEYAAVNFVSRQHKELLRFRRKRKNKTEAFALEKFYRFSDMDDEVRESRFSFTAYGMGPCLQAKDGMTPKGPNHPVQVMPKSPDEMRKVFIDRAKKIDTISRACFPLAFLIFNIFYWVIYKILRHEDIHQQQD
Description: Whole-cell patch-clamp electrophysiology, α3 GlyR. It is filed as cell-based. More on the design: expressed in transfected cells; host or cells: HEK293. The settings on record: read-out: % block of EC50 glycine current; 100 µM lindane, HEK293 cells, -40 mV, 4–7 cells, Fig. 5B. As for the experimental part: as §7, §8

The target of assay [5] is T4, α3β GlyR (Homo sapiens, UniProt O75311+P48167). Briefly: Whole-cell patch-clamp electrophysiology, α3β GlyR. The assay is classed as cell-based. Further details: expressed in transfected cells; host or cells: HEK293. The following applies: read-out: % block of EC50 glycine current; 100 µM lindane, HEK293 cells, -40 mV, 4–7 cells, Fig. 5B. As for the experimental part: as §7, §8
T4 sequence (P48167 23-497, one chain of several): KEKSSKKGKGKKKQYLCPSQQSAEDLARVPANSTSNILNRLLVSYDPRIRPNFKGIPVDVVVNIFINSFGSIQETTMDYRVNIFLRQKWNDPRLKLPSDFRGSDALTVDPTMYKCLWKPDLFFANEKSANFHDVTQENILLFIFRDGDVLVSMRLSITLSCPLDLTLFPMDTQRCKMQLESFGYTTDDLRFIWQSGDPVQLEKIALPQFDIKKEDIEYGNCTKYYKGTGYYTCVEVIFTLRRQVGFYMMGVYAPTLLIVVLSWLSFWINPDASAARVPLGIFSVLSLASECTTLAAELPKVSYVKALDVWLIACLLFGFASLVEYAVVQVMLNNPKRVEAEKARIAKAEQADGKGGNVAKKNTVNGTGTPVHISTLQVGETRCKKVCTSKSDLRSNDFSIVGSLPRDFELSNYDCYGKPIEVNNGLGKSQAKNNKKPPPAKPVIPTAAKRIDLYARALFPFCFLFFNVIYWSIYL

For assay [6], the target named is T2, α2 GlyR. The assay is classed as cell-based. As for the experimental part:
as §1, §2, §3, §4, §5, §6

The next assay addresses T5, α1 GlyR (Homo sapiens, UniProt P23415).
T5 construct: expressed in transfected cells; host or cells: HEK293
T5 sequence (P23415 29-457): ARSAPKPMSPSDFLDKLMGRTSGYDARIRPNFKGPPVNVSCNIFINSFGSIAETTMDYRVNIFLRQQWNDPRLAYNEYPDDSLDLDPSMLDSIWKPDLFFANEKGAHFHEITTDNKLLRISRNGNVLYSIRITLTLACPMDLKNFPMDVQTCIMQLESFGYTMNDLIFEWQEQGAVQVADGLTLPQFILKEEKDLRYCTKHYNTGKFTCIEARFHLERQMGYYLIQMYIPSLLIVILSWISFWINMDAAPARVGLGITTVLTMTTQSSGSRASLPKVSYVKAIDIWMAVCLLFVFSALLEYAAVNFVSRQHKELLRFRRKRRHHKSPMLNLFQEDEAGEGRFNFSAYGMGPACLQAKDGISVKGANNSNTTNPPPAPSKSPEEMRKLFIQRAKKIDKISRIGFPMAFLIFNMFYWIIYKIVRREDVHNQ
The assay is classed as cell-based. As for the experimental part:
as §1, §2, §3, §4, §5, §6

For assay [7], the target named is T3, α3 GlyR. The settings on record: Fig. 3A.
Description: plated into 60-mm culture dishes and were transfected when approx. 80% confluent. YFP and GlyR chloride channel subunits were transfected in 1∶1 (YFP and α1-3 GlyR homomers) or 2∶1∶1 ratio (YFP, GlyR α1-3 homo and α1-3β GlyR heteromers) with a total cDNA quantity of 1 µg. Cells were transfected using calcium phosphate precipitation transfection technique, as described in Sambrook et al. [37]. Transfection efficiency varies from 20 to 60%. We routinely achieve a correlation of 80 to 90% between cells expressing YFP and cells expressing GlyRs.
Following termination of transfection, cells were trypsinized by adding 0.7 mL of 0.25% trypsin–EDTA solution (Gibco BRL), resuspended into DMEM, and 2.5×10^3 cells, suspended in 40 µL DMEM, were plated into each well of a transparent 384-well plate for fluorescence imaging experiments. Cells were used in experiments 24 h later. Individual wells typically contained 5×10^3 cells at the time of the experiment. Approximately 1 h prior to commencement of experiments culture media in 384-well plates were removed by turning the plate upside-down onto a stack of tissue and were left for approximately 30 sec until culture media was entirely removed from the wells. […]
(§9) Images of fluorescent cells were segmented and quantitatively analyzed using a modified version of DetecTIFF® software [40]. In brief, images were segmented using an iterative size and intensity-based thresholding algorithm and the fluorescence signal of identified cells was calculated as the mean of all pixel values within the area of a cell.
• Goodness of fit (R^2, ≥0.9), to include curve fits that represent the data points to a high degree. • Dynamic range of fluorescence change (ΔF, 20–100%), to include cells co-expressing both, YFPI152L and GlyRs.
Filter ranges for enrichment of functional data were determined empirically by biological relevance.
In assay [8] the target is T4, α3β GlyR. The following applies: read-out: Median half-maximal activation by glycine (EC50), control conditions; no drug, Fig. 4F, n = 122.
Description: plated into 60-mm culture dishes and were transfected when approx. 80% confluent. YFP and GlyR chloride channel subunits were transfected in 1∶1 (YFP and α1-3 GlyR homomers) or 2∶1∶1 ratio (YFP, GlyR α1-3 homo and α1-3β GlyR heteromers) with a total cDNA quantity of 1 µg. Cells were transfected using calcium phosphate precipitation transfection technique, as described in Sambrook et al. [37]. Transfection efficiency varies from 20 to 60%. We routinely achieve a correlation of 80 to 90% between cells expressing YFP and cells expressing GlyRs. […]
Following termination of transfection, cells were trypsinized by adding 0.7 mL of 0.25% trypsin–EDTA solution (Gibco BRL), resuspended into DMEM, and 2.5×10^3 cells, suspended in 40 µL DMEM, were plated into each well of a transparent 384-well plate for fluorescence imaging experiments. […]
as §9
• Goodness of fit (R^2, ≥0.9), to include curve fits that represent the data points to a high degree. • Dynamic range of fluorescence change (ΔF, 20–100%), to include cells co-expressing both, YFPI152L and GlyRs. […]

T1 sequence (P48167 23-497, one chain of several): as the sequence (P48167 23-497, one chain of several) above

In the case of `Cl[C@H]1[C@H](Cl)[C@@H](Cl)[C@@H](Cl)[C@H](Cl)[C@H]1Cl` [lindane, γ-hexachlorocyclohexane], the “Effect on receptor (color map of median glycine EC50)” value (from here on “Effect on receptor”) on α2β GlyR [1] is “no inhibition”. For the same compound, the inhibition at 100 µM at α2 GlyR [2] is 94 ± 5%; on α2β GlyR [3] it was 23 ± 4%; on α3 GlyR [4], 96 ± 4%; on α3β GlyR [5], 14 ± 3%.
For the compound `O=C1C[C@@H]2OCC=C3CN4CC[C@]56c7ccccc7N1[C@H]5[C@H]2[C@H]3C[C@H]46` [strychnine], the “Effect on receptor” value at α2β GlyR [1] is reported as “inhibition”.
With picrotoxin, the “Effect on receptor” value at α2 GlyR [6] (drugs at 10 and 100 µM, Fig. 6A) is on record as “overall less block of homomeric α2 GlyRs by picrotoxin compared to lindane”; on α2β GlyR [1], “no inhibition”.
One may read the EC50 as the concentration that produces a half-maximal response. Take `NCC(=O)O` [glycine]: the “Slope value, averaged” value is 1.19±0.03 at α1 GlyR, 2.92±0.09 on α2 GlyR [6] and 0.91±0.03 on α3 GlyR [7] (glycine dose-response). Further, the “Slope values, range over single cells” value is listed as 0.47–1.92 on α1 GlyR, 0.51–4.73 at α2 GlyR [6] and 0.39–3.43 at α3 GlyR [7] (glycine dose-response). For the same compound, the EC50 at α3 GlyR [7] (read-out: Averaged glycine EC50, HEK293 cells, individual well, n = 212 cells) turned out to be 186 ± 17 µM; on α3β GlyR [8], 46.8 ± 4 µM.

(Values after publication PMC3592791, “Fluorescence-Based High-Throughput Functional Profiling of Ligand-Gated Ion Channels at the Level of Single Cells” (PLoS ONE, 2013).)
